From article PMC7539012, “Hyperphosphorylated tau aggregation and cytotoxicity modulators screen identified prescription drugs linked to Alzheimer's disease and cognitive functions” (Scientific Reports, 2020)
Counter-ions that a name gives are not always drawn. Like-named read-outs stand apart in the source and are kept apart here.

System: T1, 1N4R p-tau
T1 construct: made in house; host or cells: E. coli (PIMAX system)
Assay: p-tau aggregation modulator screen of 1280-compound library (ThS fluorescence net change over 16 h);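 on ThS net change: 30 µM compound with 6 µM p-tau over 16 h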
Assay type: biochemical
Parameters: key to PTAI>2SD: *: PTAI>2SD; key to PTAI>3SD: *: PTAI>3SD

[1] = library screen, ThS fluorescence net change over 16 h with p-tau
[2] = 1280-compound library screen, […]
[3] = p-tau aggregation modulator screen of 1280-compound library, ThS fluorescence net change
[4] = 1280-compound library screen, ThS fluorescence net change over 16 h
[5] = p-tau aggregation modulator screen of the compound library, ThS fluorescence net change
[6] = p-tau aggregation modulator screen of 1280-compound library, […]

Work on `CCCCCCC[N+](CC)(CC)CCCCc1ccc(Cl)cc1.Cc1ccc(S(=O)(=O)[O-])cc1` [Clofilium tosylate] yielded a ThS net change [1] of 326.

Compound `CCN(CC)CCOc1ccc(/C(=C(/Cl)c2ccccc2)c2ccccc2)cc1.O=C(O)CC(O)(CC(=O)O)C(=O)O` [Clomiphene citrate (Z,E)] has a ThS net change [2] of 409.

`CN(C)CCCN1c2ccccc2CCc2ccc(Cl)cc21` [Clomipramine hydrochloride] gave a ThS net change of 307.

In the case of `Clc1cccc(Cl)c1N=C1NCCN1` [Clonidine hydrochloride], the ThS net change [3] is reported as 330.

Compound `Cc1c(Cl)cccc1Nc1ncccc1C(=O)O.NCCCC[C@H](N)C(=O)O` [Clonixin Lysinate] has a ThS net change of 462.

`C[C@@H]1CCC[C@H](C)N1NC(=O)c1ccc(Cl)c(S(N)(=O)=O)c1` [Clopamide] was tested, and the ThS net change [3] was 369.

In the case of `Cl.Clc1ccc(C(OCCN2CCCCC2)c2ccccc2)cc1` (centres unmarked) [Cloperastine hydrochloride], the ThS net change [4] is reported as 386.

`COC(=O)[C@H](c1ccccc1Cl)N1CCc2sccc2C1` [Clopidogrel] gave a ThS net change [5] of 499.

Compound `C#CCN(C)CCCOc1ccc(Cl)cc1Cl` [Clorgyline hydrochloride] has a ThS net change [4] of 400.

Work on `Nc1cc(C(Cl)=C(Cl)Cl)c(S(N)(=O)=O)cc1S(N)(=O)=O` [Clorsulon] yielded a ThS net change [4] of 393.

`Cc1cc(C(C#N)c2ccc(Cl)cc2)c(Cl)cc1NC(=O)c1cc(I)cc(I)c1O` (centres unmarked) [Closantel] was tested, and the ThS net change [5] was 423.

`Clc1ccccc1C(c1ccccc1)(c1ccccc1)n1ccnc1` [Clotrimazole] showed a ThS net change [4] of 396.

With `Cc1onc(-c2ccccc2Cl)c1C(=O)N[C@@H]1C(=O)N2[C@@H]1SC(C)(C)[C@@H]2C(=O)[O-].[Na+]` [Cloxacillin sodium salt] the ThS net change [4] was 380.

For `CN1CCN(C2=Nc3cc(Cl)ccc3Nc3ccccc32)CC1` [Clozapine], the ThS net change [3] was 368.

Compound `COc1cc2c(c(OC)c1OC)-c1ccc(OC)c(=O)cc1[C@@H](NC(C)=O)CC2` [Colchicine] has a ThS net change [6] of 336.

Compound `C[C@]12C[C@H](O)[C@H]3[C@@H](CCC4=CC(=O)CC[C@@]43C)[C@@H]1CC[C@@H]2C(=O)CO` [Corticosterone] has a ThS net change [5] of 416.

`CC(=O)OCC(=O)[C@@]1(O)CC[C@H]2[C@@H]3CCC4=CC(=O)CC[C@]4(C)[C@H]3[C@@H](O)C[C@@]21C` [Cortisol acetate] gave a ThS net change [3] of 369.

`C[C@]12CCC(=O)C=C1CC[C@@H]1[C@@H]2C(=O)C[C@@]2(C)[C@H]1CC[C@]2(O)C(=O)CO` [Cortisone] was tested, and the ThS net change [4] was 403.

`O=C(O)c1cc(=O)c2c(OCC(O)COc3cccc4oc(C(=O)O)cc(=O)c34)cccc2o1` [Cromolyn disodium salt] was tested, and the ThS net change [3] was 360.

`CN1CCN(C(c2ccccc2)c2ccccc2)CC1.Cl` [Cyclizine hydrochloride] was tested, and the ThS net change [3] was 377.

With `CN(C)CCC=C1c2ccccc2C=Cc2ccccc21` [Cyclobenzaprine hydrochloride] the ThS net change [5] was 414.

For `C[C@@H]1C[C@@H]([C@H](O)CC2CC(=O)NC(=O)C2)C(=O)[C@@H](C)C1` [Cycloheximide], the ThS net change was 442.

With `NS(=O)(=O)c1cc2c(cc1Cl)NC(CC1CCCC1)NS2(=O)=O` (centres unmarked) [Cyclopenthiazide] the “PTAI>3SD” value (flag: p-tau aggregation inhibitor, ThS net change more than 3 SD from mean) was “*” and the ThS net change [1] was 0.

Work on `CN(C)CCOC(=O)C(c1ccccc1)C1(O)CCCC1` (centres unmarked) [Cyclopentolate hydrochloride] yielded a ThS net change [4] of 412.

Work on `O=P1(N(CCCl)CCCl)NCCCO1` (centres unmarked) [Cyclophosphamide] yielded a ThS net change of 440.

In the case of `CN1CCC(=C2c3ccccc3C=Cc3ccccc32)CC1` [Cyproheptadine hydrochloride], the ThS net change [3] is reported as 375.

Compound `CC(=O)O[C@]1(C(C)=O)CC[C@H]2[C@@H]3C=C(Cl)C4=CC(=O)[C@@H]5C[C@@H]5[C@]4(C)[C@H]3CC[C@@]21C` [Cyproterone acetate] has a ThS net change [5] of 432.

`Nc1ccn([C@@H]2O[C@H](CO)[C@@H](O)[C@@H]2O)c(=O)n1` [Cytarabine] was tested, and the ThS net change [4] was 392.

Work on `N[C@@H]1CON=C1O` [D-cycloserine] yielded a ThS net change [4] of 405.

`COc1ccccc1N1CCN(CCCCNC(=O)c2ccc3ccccc3c2)CC1.Cl.Cl` [DO 897/99] showed a ThS net change [3] of 374.

Compound `CN(C)/N=N/c1[nH]cnc1C(N)=O` [Dacarbazine] has a ThS net change [4] of 392.

With `C#C[C@]1(O)CC[C@H]2[C@@H]3CCC4=Cc5oncc5C[C@]4(C)[C@H]3CC[C@@]21C` [Danazol] the ThS net change [5] was 495.

With `O=C1CN(/N=C/c2ccc(-c3ccc([N+](=O)[O-])cc3)o2)C([O-])=N1.[Na+]` [Dantrolene sodium salt] the ThS net change [1] was 286.

`Nc1ccc(S(=O)(=O)c2ccc(N)cc2)cc1` [Dapsone] showed a ThS net change [4] of 382.

For `NC(=O)C(c1ccccc1)(c1ccccc1)[C@@H]1CCN(CCc2ccc3c(c2)CCO3)C1` [Darifenacin hydrobromide], the ThS net change [2] was 384.

With `COc1cccc2c1C(=O)c1c(O)c3c(c(O)c1C2=O)C[C@@](O)(C(C)=O)C[C@@H]3O[C@H]1C[C@H](N)[C@H](O)[C@H](C)O1` [Daunorubicin hydrochloride] the ThS net change was 235.

In the case of `N=C(N)N1CCc2ccccc2C1` [Debrisoquin sulfate], the ThS net change [3] is reported as 360.

For `C[N+](C)(C)CCCCCCCCCC[N+](C)(C)C` [Decamethonium bromide], the ThS net change [4] was 390.

Compound `CC(=O)N(O)CCCCCNC(=O)CCC(=O)N(O)CCCCCNC(=O)CCC(=O)N(O)CCCCCN` [Deferoxamine mesylate] has a ThS net change of 439.

With `CC(=O)OCC(=O)[C@@]12N=C(C)O[C@@H]1C[C@H]1[C@@H]3CCC4=CC(=O)C=C[C@]4(C)[C@H]3[C@@H](O)C[C@@]12C` [Deflazacort] the ThS net change [5] was 420.

In the case of `C[C@H](CCC(=O)O)[C@H]1CC[C@H]2[C@@H]3C(=O)C[C@@H]4CC(=O)CC[C@]4(C)[C@H]3CC(=O)[C@]12C` [Dehydrocholic acid], the ThS net change [3] is reported as 331.

`CC(=O)O[C@H]1CC[C@@]2(C)C(=CC[C@@H]3[C@@H]2CC[C@]2(C)C(=O)CC[C@@H]32)C1` [Dehydroisoandosterone 3-acetate] showed a ThS net change of 423.

With `CN(CCCCCCCCCCN(C)C(=O)Oc1cccc([N+](C)(C)C)c1)C(=O)Oc1cccc([N+](C)(C)C)c1` [Demecarium bromide] the ThS net change [6] was 377.

`CN(C)[C@@H]1C(O)=C(C(N)=O)C(=O)[C@@]2(O)C(O)=C3C(=O)c4c(O)ccc(Cl)c4[C@@H](O)[C@H]3C[C@@H]12` [Demeclocycline hydrochloride] was tested, and the “PTAI>2SD” value (flag: p-tau aggregation inhibitor, ThS net change more than 2 SD from mean) was “*” and the ThS net change [1] was 117.

`CC[N+](CC)(CC(=O)Nc1c(C)cccc1C)Cc1ccccc1` [Denatonium benzoate] was tested, and the ThS net change was 448.

Compound `CN1[C@@H]2CC[C@H]1CC(OC1c3ccccc3CCc3ccccc31)C2.O=C(O)CC(O)(CC(=O)O)C(=O)O` (some centres unmarked) [Deptropine citrate] has a ThS net change [5] of 455.

Compound `Cc1cc(N)c2ccccc2[n+]1CCCCCCCCCC[n+]1c(C)cc(N)c2ccccc21` [Dequalinium dichloride] has a ThS net change [1] of 297.

`CNCCCN1c2ccccc2CCc2ccccc21` [Desipramine hydrochloride] gave a ThS net change [3] of 365.

For `Clc1ccc2c(c1)CCc1cccnc1C2=C1CCNCC1` [Desloratadine], the ThS net change was 457.

With `CC1(C)O[C@@H]2C[C@H]3[C@@H]4CCC5=CC(=O)C=C[C@]5(C)[C@H]4[C@@H](O)C[C@]3(C)[C@]2(C(=O)CO)O1` [Desonide] the ThS net change [5] was 440.

Compound `CC(=O)OCC(=O)[C@@]1(O)[C@H](C)C[C@H]2[C@@H]3CCC4=CC(=O)C=C[C@]4(C)[C@@]3(F)[C@@H](O)C[C@@]21C` [Dexamethasone acetate] has a ThS net change [3] of 343.
